Test results: ChEMBL document CHEMBL1132832, “Programmed cell death (PCD) associated with the stilbene motif of arotinoids: discovery of novel apoptosis inducer agents possessing activity on multidrug resistant tumor cells” (Bioorg Med Chem Lett, 2000)

Legend:
Type in all cases: functional, cell-based
HL-60 [1] = test: In vitro cytotoxicity against HL60 cells.; conditions: Homo sapiens
HL-60 [2] = test: In vitro apoptotic activity against HL60 cells after 48 hr of treatment.; conditions: Homo sapiens, HL-60, 48 h
K562 [3] = test: The compound evaluated for Cytotoxic activity against multi drug resistant K562 cells (the results were obtained after 48 hr treatment); conditions: Homo sapiens, K562, 48 h
HL-60 [4] = test: The compound evaluated for apoptotic activity against multi drug resistant HL60 R cells (the results were obtained after 48 hr treatment); conditions: Homo sapiens, HL-60, 48 h
HL-60 [5] = test: The compound evaluated for Cytotoxic activity against multi drug resistant HL60R cells (the results were obtained after 48 hr treatment); conditions: Homo sapiens, HL-60, 48 h
K562 [6] = test: The compound evaluated for apoptotic activity against K562 cells (the results were obtained after 48 hr treatment); conditions: Homo sapiens, K562, 48 h
HuT78 [7] = test: The compound evaluated for Cytotoxic activity against multi drug resistant HUT 78 cells (the results were obtained after 48 hr treatment); conditions: Homo sapiens, HuT78, 48 h
HuT78 [8] = test: The compound evaluated for apoptotic activity against multi drug resistant HUT 78 cells (the results were obtained after 48 hr treatment); conditions: Homo sapiens, HuT78, 48 h
HuT78 [9] = test: The compound evaluated for apoptotic activity against HUT 78 cells (the results were obtained after 48 hr treatment); conditions: Homo sapiens, HuT78, 48 h

Row | SMILES | IC50 (HL-60 [1]) [µM] | AC50 (HL-60 [2]) [µM] | also measured
1 | C/C(=C\c1ccc(C(=O)O)cc1)c1ccc2c(c1)C(C)(C)CCC2(C)C | 46 | > 100 | 
2 | COc1ccc(/C=C(/C)c2ccc3c(c2)C(C)(C)CCC3(C)C)cc1N | 42 | 90 | 
3 | COc1ccc(/C=C(\C)c2ccc3c(c2)C(C)(C)CCC3(C)C)cc1N | 20 | 40 | 
4 | C/C(=C/c1ccc(C(=O)O)cc1)c1ccc2c(c1)C(C)(C)CCC2(C)C | 10 | 40 | 
5 | C/C(=C\c1cccc(C(=O)O)c1)c1ccc2c(c1)C(C)(C)CCC2(C)C | > 100 | > 100 | 
6 | COc1ccc(/C=C/c2ccc3c(c2)C(C)(C)CCC3(C)C)cc1 | 50 | > 100 | 
7 | COc1ccc(/C=C\c2ccc3c(c2)C(C)(C)CCC3(C)C)cc1 | 50 | > 100 | 
8 | COc1ccc(/C=C/c2ccc3c(c2)C(C)(C)CCC3(C)C)cc1N | 61 | 85 | 
9 | C/C(=C/c1cccc(C(=O)O)c1)c1ccc2c(c1)C(C)(C)CCC2(C)C | 50 | 80 | 
10 | CC1(C)CCC(C)(C)c2cc(/C=C\c3ccc(N)cc3)ccc21 | 18 | 38 | IC50 (K562 [3]): 50 µM; AC50 (HL-60 [4]): > 100 µM; IC50 (HL-60 [5]): 25 µM; AC50 (K562 [6]): > 100 µM; IC50 (HuT78 [7]): 43 µM; AC50 (HuT78 [8]): > 100 µM
11 | COc1ccc(/C=C\c2ccc3c(c2)C(C)(C)CCC3(C)C)cc1N | 25 | 50 | IC50 (K562 [3]): 42 µM; AC50 (HL-60 [4]): 87 µM; IC50 (HL-60 [5]): 48 µM; AC50 (K562 [6]): 50 µM; AC50 (HuT78 [9]): 46 µM; IC50 (HuT78 [7]): 22 µM
12 | CC1(C)CCC(C)(C)c2cc(/C=C/c3ccc(N)cc3)ccc21 | 18 | 38 | 
13 | CC1(C)CCC(C)(C)c2cc(/C=C\c3cccc(N)c3)ccc21 | 10 | 10 | IC50 (K562 [3]): 13 µM; AC50 (HL-60 [4]): 25 µM; IC50 (HL-60 [5]): 15 µM; AC50 (K562 [6]): 27 µM; AC50 (HuT78 [9]): 10 µM; IC50 (HuT78 [7]): 5 µM
14 | C/C(=C/c1ccccc1C(=O)O)c1ccc2c(c1)C(C)(C)CCC2(C)C | 52 | 90 | 
15 | CC1(C)CCC(C)(C)c2cc(/C=C/c3cccc(N)c3)ccc21 | 20 | 40 | 
16 | C/C(=C\c1ccccc1C(=O)O)c1ccc2c(c1)C(C)(C)CCC2(C)C | > 100 | > 100 | 
17 | C/C(=C/c1cc(C(=O)O)no1)c1ccc2c(c1)C(C)(C)CCC2(C)C | 26 | 47 | 
18 | CC1=C(/C=C/C(C)=C/C=C/C(C)=C/C(=O)O)C(C)(C)CCC1 [TRETINOIN] |  | > 100 | 
